Assay results: patent US8968715B2, “Drug delivery systems for photodynamic therapy” (The University of British Columbia, priority 2000, dated 2015)
Entries after “also recorded” stand apart in the source; their conditions may differ.

Legend:
[1] = Drug incorporation into 10% w/v Pluronic P123; type: physicochemical; conditions: for Drug concentration formulated in 10% P123: 10% P123, non-optimized systems
Method: Using formulation methods described in Example 5, the aim was to incorporate 2 mg/ml of B-B3 into 10% w/v P123. It was shown by this method that the B-B3 can typically be incorporated at ˜1.8 mg/ml drug (based on absorbance readings and a molar extinction coefficient of 30425) 24 h post-hydration. This translates to approximately 10% drug loss. Unincorporated drug undergoes aggregation in aqueous solutions, and is characterized by the appearance of a 730 nm absorbance peak. Although the formulations can be made completely aggregate free by centrifugation or sterile filtration through 0.2 μm filters, this adds another step in the manufacturing process, which can be avoided by increasing the copolymer:drug ratio.

[2] = system: M1 rhabdomyosarcoma tumor cells; test: Tumor recurrence after PDT in tumor mouse model; type: in vivo, DBA/2 mouse
Method: Photosensitizer formulations were prepared in 10% w/v Pluronics as described in Example 4. BPD-MA was formulated in F127. B-ring compounds B-EA6 and B-B3, were prepared in P123 due to insufficient drug loading in F127. Liposomal BPD-MA formulation was Verteporfin™ and B-ring compounds were formulated in the same lipid composition. Where DMSO/plasma preparations were made, the DMSO dissolved drug was added directly to mouse plasma and the drug association with different plasma components was observed.
In these experiments the tumor model used was the DBA/2 mouse (males) inoculated intradermally with M1 rhabdomyosarcoma tumor cells (M1, ATCC. When tumors reached a diameter of 4-6 mm, the mice (n=10, unless other wise stated) were treated with photodynamic therapy (PDT). PDT involved intravenous injection of the formulated drug in 0.2 mL volume of PBS. This was followed by exposure of the tumor region to laser light (Argon pumped dye laser (5W), 690 nm, 50 J/cm^2) 15 min later. Animals were then monitored for tumor recurrence over a 20 day period post treatment.

MRL/lpr mouse = test: Transcutaneous PDT treatment of arthritis, ankle width; type: in vivo; conditions: 0.5 mg/kg i.v.
Method: Arthritis in the MRL/lpr mouse strain was enhanced by giving 2 intradermal injections (thoracic and inguinal sites) with 0.05 ml of complete Freunds adjuvant containing 10 mg/ml heat-inactivated M. tuberculosis. PDT was given on days 0, 10 and 20 following CFA treatment. PDT was carried out as follows; 3 groups of MRL/lpr mice were injected intravenously with B-B3 at 0.5 mg/kg (copolymer or liposomal formulations), after which they were protected from light. The third group was injected with copolymer alone at an equivalent copolymer concentration to that found in the formulation. An hour later, they were exposed to light at 80 J/cm^2 for […] (8 mW/cm^2).
Ankle width measurements were taken every 5 days prior to PDT treatment.

[3] = pH studies of formulation stability; type: physicochemical; conditions: poloxamer formulations
Source text: This necessitates hydration of the solid drug-polymer with a very mild buffer to counteract acidification which occurs upon use of sterile packed distilled water as commonly practiced in clinical settings. Behavior of poloxamers is unaffected by pH, and the use of buffers would be entirely dependent on ionizable groups present on the drug substance.

L1210 cells = test: Cellular uptake of photosensitizer formulations; type: cell-based; conditions: 3 μg/ml, FIG. 1
Method: The protocol for setting up the cell cultures and conditions for the cellular assay essentially followed Richter et al. (Proc. SPIE, 2078: 293-304, September 1993). L1210 cells in DMEM and 10% FBS (single experiment, 3 sets) were incubated with the formulations at a concentration of 3 μg/ml and examined for uptake in the cells over time. Cells were recovered by centrifugation, the pellet briefly rinsed, and the cells lysed by freeze thawing in the presence of 2% Triton X-100®. An equal volume of methanol was added and fluorescence was read at 694 nm (λex 440 nm).

[4] = Deposition of BPD-MA / F127 formulations on lactose crystals: hydration and filtration; type: physicochemical
Method: In this experiment the deposition of the photosensitizer BPD-MA with the block copolymer Pluronic® F127 onto the sugar lactose was examined. Formulations containing 5% (w/v) and a 10% (w/v) F127 were tested. 0.5 g lactose and 10 mg BPD-MA were added to two rotary evaporation flasks. A stock solution of […] F127 was prepared in CH2Cl2. 1.25 ml (for 5% w/v) and 2.5 ml (for 10% w/v) F127 stock solution was added to each flask. The final volume in each flask was made up to 5.0 ml with CH2Cl2 and the components mixed to ensure complete dissolution. The solvent was removed by rotary evacuation at 50° C., and the flask left under vacuum for a further 15 min at 23° C. Micro-thin film deposits were scraped from the walls and hydrated in 5 ml water at 50° C. The formulations were filtered twice using 0.2 μm syringe filters (Acrodisc, polysulphone).
The experimental conditions and components were the same as Example 15 with the exception of the following changes. A stock of 0.2 mg/ml F127 was prepared in ethanol and 0.65 ml (2.5% w/v) and 1.25 ml (5% w/v) of the stock solution was added to two flasks. The final volume was made up to 5.0 ml with ethanol and the contents dissolved with warming. Ethanol was removed by rotary evacuation at 50° C., left under vacuum for 15 min at room. Micro-thin film deposits were scraped from the walls and dissolved in 5 ml water at 50° C. as previously described. […]

[5] = BPD-MA drug loading and formulation stability in Pluronic copolymers (melt method, absorbance); type: physicochemical; conditions: 3 days storage at room temperature
Method: In this experiment the use of copolymers for drug loading capability and formulation stability over a 3 day period was examined using the photosensitizer drug BPD-MA. The criteria for choosing the copolymers were based on the solution and viscosity characteristics described in Example 1. The ‘melt’ method is used for the preparation and screening of the large number of samples and is described as follows. At temperatures above 50° C., poloxamers are in their molten state and serve as excellent solvents for tetrapyrrolic compounds, thus avoiding the need for pre-dissolution of drugs in organic solvents. 5 mg of BPD-MA was dissolved with the aid of vortex mixing and sonication at 55° C. into the polymer ‘melts’ to give a final concentration of 5% to 20% w/v of the respective Pluronic. To each melt sample, 2.5 ml of PBS was added to give a final BPD-MA concentration of 2 mg/ml. Samples were allowed to equilibrate to room temperature before drug loading was determined at time zero (T0). 1 ml of suspension was removed for centrifugation (Microfuge, 14,000 rpm, 30 min), and the rest filtered through 0.2 μm filters (Millipore). The filtrate was diluted 1:100 in PBS and the absorbance at 690±3 nm determined (uv-vis spectrophotometer Beckman DU-6401). This procedure was repeated 72 hours later following storage at room temperature and the absorbance measurement (T72).

C=Cc1c(C)c2cc3nc(cc4[nH]c(cc5nc(cc1[nH]2)C1(C)C5=CC=C(C(=O)O)C1C(=O)OC)c(C)c4CCC(=O)OC)C(CCC(=O)OC)=C3C (stereo not shown) [B-B3]
Drug concentration formulated in 10% P123 [1]: approximately 1.8 mg/ml
Drug incorporated / retained 24 h post-hydration ([1]; aim 2 mg/ml into 10% w/v P123): ~1.8 mg/mL
PDT efficacy in tumor model ([2]; plasma/DMSO preparation): completely ineffective for PDT purposes
Control of joint inflammation (increase in ankle swelling) (MRL/lpr mouse; copolymer formulation, 80 J/cm^2, FIG. 2): highly effective in controlling the inflammation
Control of joint inflammation (increase in ankle swelling) (MRL/lpr mouse; liposomal formulation, after day 25): exacerbation of the inflammatory condition
Control of joint inflammation (increase in ankle swelling) (MRL/lpr mouse; liposomal formulation, earlier part of the study, FIG. 2, 0.5 mg/kg): improved suppression of the inflammation compared to controls; also recorded: better suppression of the inflammation compared to the controls
pH dependence of formulation stability [3]: detrimental to formulation stability
Incubation time of 50% uptake level (L1210 cells; copolymer Pluronic P123 formulation): close to ‘zero’ incubation time

C=Cc1c(C)c2cc3nc(cc4[nH]c(cc5nc(cc1[nH]2)C1(C)C5=CC=C(C(=O)OC)C1C(=O)OC)c(C)c4CCC(=O)OCCO)C(CCC(=O)OCCO)=C3C (stereo not shown) [B-EA6]
pH dependence of formulation stability [3]: does not display any pH-dependency

benzoporphyrin derivative monoacid ring A [BPD-MA]
Drug concentration formulated in 10% P123 [1]: ≤ 4000 µg/mL
Percent (%) Mice Tumor Free ([2]; Liposomal, 1.0 mg/kg, Day 7): 100%
Percent (%) Mice Tumor Free ([2]; Liposomal, 1.0 mg/kg, Day 14): 100%
Percent (%) Mice Tumor Free ([2]; Liposomal, 1.0 mg/kg, Day 20): 30%
Percent (%) Mice Tumor Free ([2]; Pluronic F127, 1.0 mg/kg, Day 7): 100%
Percent (%) Mice Tumor Free ([2]; Pluronic F127, 1.0 mg/kg, Day 14): 60%
Percent (%) Mice Tumor Free ([2]; Pluronic F127, 1.0 mg/kg, Day 20): 60%
Likelihood to remain tumor free, poloxamer formulation compared to liposomal BPD-MA ([2]; end of the 20 day period): twice as likely to remain tumor free
Filtration through 0.2 μm filter ([4]; 2.5% and 5% w/v F127 on lactose, ethanol as solvent): no resistance
Drug loss on filtration through 0.2 μm filters ([4]; 5% w/v and 10% w/v F127 on lactose, CH2Cl2 as solvent): no drug loss
Incubation time at which uptake saturation level is achieved (L1210 cells; liposomal formulation): 30 min
Incubation time of 50% uptake (L1210 cells; liposomal formulation): approximately 5 min
Stability of BPD-MA formulations in Pluronic [5]: no loss of stability
